This note sets out measurements from patent publication US20240199546A1, “INHIBITORS OF SOLUTE CARRIER FAMILY 6A MEMBER 19 (SLC6A19) AND METHODS OF USE THEREOF” (Maze Therapeutics, Inc., priority 2022, published 2024).

Molecules are shown by their SMILES.

The IC50 is the concentration that inhibits the measured activity by half.

This test concerns the target T1, human SLC6A19 and TMEM27 (Homo sapiens, UniProt Q695T7).
T1 construct: expressed in transfected cells
T1 sequence (Q695T7 1-634): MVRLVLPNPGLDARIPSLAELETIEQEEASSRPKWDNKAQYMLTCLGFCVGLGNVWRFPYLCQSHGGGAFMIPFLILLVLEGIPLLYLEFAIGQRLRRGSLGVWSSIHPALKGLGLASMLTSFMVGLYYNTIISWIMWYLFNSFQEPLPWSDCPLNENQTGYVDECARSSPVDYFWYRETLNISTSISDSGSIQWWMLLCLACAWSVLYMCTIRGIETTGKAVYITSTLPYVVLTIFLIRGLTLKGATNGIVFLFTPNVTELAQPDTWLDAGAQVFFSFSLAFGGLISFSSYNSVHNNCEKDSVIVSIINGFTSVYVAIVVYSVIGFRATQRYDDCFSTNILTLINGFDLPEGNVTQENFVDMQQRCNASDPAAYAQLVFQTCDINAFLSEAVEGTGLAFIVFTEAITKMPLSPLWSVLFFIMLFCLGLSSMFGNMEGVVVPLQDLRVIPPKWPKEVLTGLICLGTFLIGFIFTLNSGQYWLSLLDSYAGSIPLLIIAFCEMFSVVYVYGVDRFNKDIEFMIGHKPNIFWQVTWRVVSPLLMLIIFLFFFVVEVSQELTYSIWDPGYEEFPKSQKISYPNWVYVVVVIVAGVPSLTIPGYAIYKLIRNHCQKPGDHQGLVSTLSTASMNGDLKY
T1 sequence (Q9HBJ8 15-222 partner): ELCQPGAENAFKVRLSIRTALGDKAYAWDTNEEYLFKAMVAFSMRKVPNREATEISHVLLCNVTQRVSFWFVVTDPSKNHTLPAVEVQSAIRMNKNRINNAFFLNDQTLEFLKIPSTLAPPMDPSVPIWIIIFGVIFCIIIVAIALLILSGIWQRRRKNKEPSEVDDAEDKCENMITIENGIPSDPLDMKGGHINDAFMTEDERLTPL
Put plainly: Radiolabelled (3H) leucine uptake in CHO cells with doxycycline-inducible expression of human SLC6A19 and TMEM27 (Example B-1). Type of test: cell-based. To be noted: CHO cells with doxycycline-inducible expression of human SLC6A19 and TMEM27, read-out: SLC6A19_Radioligand Uptake Assay IC50. Summed up:
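CHO cells were induced with doxycycline for 18 h at 37 °C, washed in HBSS, then exposed to compounds for 1 h: 8-point, 3-fold dilutions in duplicate, 0.5% DMSO final. Uptake measured by scintillation counting after 2 h shaking. Activity normalized with positive control as 0% and DMSO as 100%.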
As for `CC(NC(=O)C1(C)CC1)c1cc2cc(Cl)c(OCc3cscn3)cc2[nH]1` (racemic) [Compound 347, (S)-N-(1-(5-chloro-6-(thiazol-4-ylmethoxy)-1H-indol-2-yl)ethyl)-1-methylcyclopropane-1-carboxamide and (R)-N-(1-(5-chloro-6-(thiazol-4-ylmethoxy)-1H-indol-2-yl)ethyl)-1-methylcyclopropane-1-carboxamide], the IC50 was determined as 1050 nM.
With `C[C@H](O)C(=O)NCc1cc2cc(F)c(OCc3cscn3)cc2[nH]1` [Compound 281, (S)-N-((5-fluoro-6-(thiazol-4-ylmethoxy)-1H-indol-2-yl)methyl)-2-hydroxypropanamide] the figure was 2280 nM; with `Cc1cc(COc2cc3[nH]c(CNC(=O)C4OCCC4(F)F)cc3cc2Cl)on1` (centres unmarked) [Compound 306, N-((5-chloro-6-((3-methylisoxazol-5-yl)methoxy)-1H-indol-2-yl)methyl)-3,3-difluorotetrahydrofuran-2-carboxamide], 633 nM.
Regarding `O=C(NCc1cc2cc(Cl)c(OCc3cscn3)cc2[nH]1)N1CC(O)C1` [Compound 367, N-((5-chloro-6-(thiazol-4-ylmethoxy)-1H-indol-2-yl)methyl)-3-hydroxyazetidine-1-carboxamide], the IC50 was 1240 nM.
Under `CC1(C(=O)NCc2cc3cc(C4(F)CC4)c(OCc4cscn4)cc3[nH]2)CC1` [Compound 656, N-((5-(1-fluorocyclopropyl)-6-(thiazol-4-ylmethoxy)-1H-indol-2-yl)methyl)-1-methylcyclopropane-1-carboxamide] stands 8470 nM.
Regarding `Cc1cc(COc2cc3[nH]c(CNC(=O)C[C@@H](C)O)cc3cc2Cl)on1` [Compound 287, (R)-N-((5-chloro-6-((3-methylisoxazol-5-yl)methoxy)-1H-indol-2-yl)methyl)-3-hydroxybutanamide], the IC50 was 2400 nM.
Consider `CSc1cc2cc(CNC(=O)C3(C)CC3)[nH]c2cc1OCc1cscn1` [Compound 348, 1-methyl-N-((5-(methylthio)-6-(thiazol-4-ylmethoxy)-1H-indol-2-yl)methyl)cyclopropane-1-carboxamide], for which the IC50 was determined as 516 nM.
`CO[C@H](C)C(=O)NCc1cc2cc(Cl)c(OCc3cscn3)cc2[nH]1` [Compound 292, (R)-N-((5-chloro-6-(thiazol-4-ylmethoxy)-1H-indol-2-yl)methyl)-2-methoxypropanamide]: the IC50 was 666 nM.
With `CC(=O)NCc1cc2cc(Cl)c(OCC3COC3)cc2[nH]1` [Compound 355, N-((5-chloro-6-(oxetan-3-ylmethoxy)-1H-indol-2-yl)methyl)acetamide], the IC50 is 6600 nM.
Regarding `C[C@H](O)C(=O)NCc1cc2cc(Cl)c(OCc3cscn3)cc2[nH]1` [Compound 285, (S)-N-((5-chloro-6-(thiazol-4-ylmethoxy)-1H-indol-2-yl)methyl)-2-hydroxypropanamide], the IC50 amounted to 322 nM.
Turning to `O=C(NCc1cc2cc(Cl)c(OCc3cscn3)cc2[nH]1)C12CCC(CC1)C2` [Compound 556, N-((5-chloro-6-(thiazol-4-ylmethoxy)-1H-indol-2-yl)methyl)bicyclo[2.2.1]heptane-1-carboxamide], the IC50 turned out to be 1200 nM.
With `CC1(C(=O)NCc2cc3cc(C4CC4(F)F)c(OCc4ccon4)cc3[nH]2)CC1` (racemic) [Compound 658, N-((5-(2,2-difluorocyclopropyl)-6-(isoxazol-3-ylmethoxy)-1H-indol-2-yl)methyl)-1-methylcyclopropane-1-carboxamide] the figure was 590 nM.
Take `CC1(C(=O)NCc2cc3cc(F)c(CCc4cscn4)cc3[nH]2)CC1` [Compound 594, N-((5-fluoro-6-(2-(thiazol-4-yl)ethyl)-1H-indol-2-yl)methyl)-1-methylcyclopropane-1-carboxamide]: the IC50 worked out at 120 nM.
With `CC1CCN(C(=O)NCc2cc3cc(F)c(OCc4ccon4)cc3[nH]2)C1` (centres unmarked) [Compound 91, N-((5-fluoro-6-(isoxazol-3-ylmethoxy)-1H-indol-2-yl)methyl)-3-methylpyrrolidine-1-carboxamide] the figure was 524 nM.
On to `CC1(C(=O)NCc2cc3cc(OC(F)F)c(OCc4cscn4)cc3[nH]2)CC1` [Compound 604, N-((5-(difluoromethoxy)-6-(thiazol-4-ylmethoxy)-1H-indol-2-yl)methyl)-1-methylcyclopropane-1-carboxamide], for which the IC50 worked out at 391 nM.
In the case of `CC1(C(=O)NCc2cc3cc(Cl)c(OCc4cscn4)cc3[nH]2)CCO1` (centres unmarked) [Compound 260, N-((5-chloro-6-(thiazol-4-ylmethoxy)-1H-indol-2-yl)methyl)-2-methyloxetane-2-carboxamide], the IC50 stood at 2350 nM.
As for `CC(=O)NCc1cc2c(F)cc(OCc3cc(C)no3)cc2[nH]1` [Compound 527, N-((4-fluoro-6-((3-methylisoxazol-5-yl)methoxy)-1H-indol-2-yl)methyl)acetamide], the IC50 came out at 4610 nM.
Consider `O=C(NCc1cc2cc(F)c(OCc3ccon3)cc2[nH]1)C1(C(F)(F)F)CC1` [Compound 139, N-((5-fluoro-6-(isoxazol-3-ylmethoxy)-1H-indol-2-yl)methyl)-1-(trifluoromethyl)cyclopropane-1-carboxamide], for which the IC50 was 310 nM.
As to `CC1(C(=O)NCc2cc3cc(Cl)c(CCn4ccnc4)cc3[nH]2)CC1` [Compound 589, N-((6-(2-(1H-imidazol-1-yl)ethyl)-5-chloro-1H-indol-2-yl)methyl)-1-methylcyclopropane-1-carboxamide], the IC50 worked out at 4760 nM.
With `O=C(NCc1cc2cc(F)c(OCc3ccccn3)cc2[nH]1)C1CC1` [Compound 505, N-((5-fluoro-6-(pyridin-2-ylmethoxy)-1H-indol-2-yl)methyl)cyclopropanecarboxamide] the figure was 203 nM.
As to `COC(=O)NCc1cc2cc(Cl)c(OCc3cc(C)no3)cc2[nH]1` [Compound 625, methyl ((5-chloro-6-((3-methylisoxazol-5-yl)methoxy)-1H-indol-2-yl)methyl)carbamate], the IC50 was determined as 90.2 nM.
Regarding `Cc1cc(COc2cc3[nH]c(CNC(=O)C(C)(C)C#N)cc3cc2Cl)on1` [Compound 485, N-((5-chloro-6-((3-methylisoxazol-5-yl)methoxy)-1H-indol-2-yl)methyl)-2-cyano-2-methylpropanamide], the IC50 amounted to 578 nM.
As for `Cc1cc(COc2cc3[nH]c(CNC(=O)[C@H]4COCCN4C)cc3cc2Cl)on1` [Compound 302, (R)-N-((5-chloro-6-((3-methylisoxazol-5-yl)methoxy)-1H-indol-2-yl)methyl)-4-methylmorpholine-3-carboxamide], the IC50 turned out to be 7110 nM.
Under `CC(=O)NCc1cc2cc(F)c(OCc3cscn3)cc2[nH]1` [Compound 208, N-((5-fluoro-6-(thiazol-4-ylmethoxy)-1H-indol-2-yl)methyl)acetamide] stands 133 nM; under `CN(C)CC(=O)NCc1cc2cc(Cl)c(OCc3cscn3)cc2[nH]1` [Compound 580, N-((5-chloro-6-(thiazol-4-ylmethoxy)-1H-indol-2-yl)methyl)-2-(dimethylamino)acetamide], 620 nM.
Regarding `COC(C)C(=O)NCc1cc2cc(Cl)c(OCc3cscn3)cc2[nH]1` (centres unmarked) [Compound 271, N-((5-chloro-6-(thiazol-4-ylmethoxy)-1H-indol-2-yl)methyl)-2-methoxypropanamide], the IC50 was determined as 515 nM.
